The experiment deals with L1210 leukemia ip in BDF1 mice, survival T/C. The experiment in a line: NCI In Vivo Anticancer Drug Screen. Data for tumor model L1210 Leukemia (intraperitoneal) in B6D2F1 (BDF1) mice. To be noted: endpoint: mean survival time, higher = longer survival. Put shortly: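 Value reflects the ratio of survival in compound-treated mice to survival in vehicle-treated controls, with both groups carrying the same transplanted tumor.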

[1] abbreviates: dose: 100.0 mg/kg/injection, schedule: Q01DX001 (ip), vehicle: Klucel (hydroxypropylcellulose) (HPC).
Where [2] appears, read: dose: 200.0 mg/kg/injection, schedule: Q01DX001 (ip), vehicle: Klucel (hydroxypropylcellulose) (HPC).
Setting [3] is: dose: 400.0 mg/kg/injection, schedule: Q01DX001 (ip), vehicle: Klucel (hydroxypropylcellulose) (HPC).
Setting [4] is: dose: 100.0 mg/kg/injection, schedule: Q04DX003 (ip), vehicle: Klucel (hydroxypropylcellulose) (HPC).
The mark [5] stands for this setting: dose: 200.0 mg/kg/injection, schedule: Q04DX003 (ip), vehicle: Klucel (hydroxypropylcellulose) (HPC).
Where [6] appears, read: dose: 400.0 mg/kg/injection, schedule: Q04DX003 (ip), vehicle: Klucel (hydroxypropylcellulose) (HPC).
Where [7] appears, read: dose: 100.0 mg/kg/injection, schedule: Q01DX009 (ip), vehicle: Klucel (hydroxypropylcellulose) (HPC).
[8] abbreviates: dose: 200.0 mg/kg/injection, schedule: Q01DX009 (ip), vehicle: Klucel (hydroxypropylcellulose) (HPC).
The mark [9] stands for this setting: dose: 400.0 mg/kg/injection, schedule: Q01DX009 (ip), vehicle: Klucel (hydroxypropylcellulose) (HPC).
Where [10] appears, read: dose: 100.0 mg/kg/injection, schedule: Q01DX001 (ip), vehicle: saline.
Setting [11] is: dose: 200.0 mg/kg/injection, schedule: Q01DX001 (ip), vehicle: saline.
Setting [12] is: dose: 400.0 mg/kg/injection, schedule: Q01DX001 (ip), vehicle: saline.

SMILES strings stand for the structures. “And” between values parts separate entries of the source, which are not always exact repeats. Equal values may be shown once. Toxic doses and inconclusive results are not listed.

For the molecule `CC(C)=CCC1=CC(=O)c2ccccc2C1=O`, the T/C by setting is: (dose: 12.0 mg/kg/injection, schedule: Q01DX009 (ip), vehicle: water) 97 % of control; (dose: 25.0 mg/kg/injection, schedule: Q01DX009 (ip), vehicle: water) 102 % of control; (dose: 50.0 mg/kg/injection, schedule: Q01DX001 (ip), vehicle: water) 96 % of control; (dose: 50.0 mg/kg/injection, schedule: Q01DX009 (ip), vehicle: water) 96 % of control; (dose: 100.0 mg/kg/injection, schedule: Q01DX001 (ip), vehicle: water) 102 % of control; (dose: 100.0 mg/kg/injection, schedule: Q01DX009 (ip), vehicle: water) 95 % of control. Also, the T/C is, setting by setting: (dose: 200.0 mg/kg/injection, schedule: Q01DX001 (ip), vehicle: water) 105 % of control; (dose: 400.0 mg/kg/injection, schedule: Q01DX001 (ip), vehicle: water) 92 % of control.

`O=C(OC(C1COCO1)C(O)C1COCO1)c1ccccc1` (stereo unspecified): the T/C by setting is: under setting [1], 96 % of control; under setting [2], 105 % of control; under setting [3], 107 % of control.

In the case of `CC1(C)OCC(C(OC(=O)c2ccccc2)C(OC2CCCCO2)C2COC(C)(C)O2)O1` (stereo unspecified), the T/C is 94 % of control under setting [4], 96 % of control under setting [5] and 94 % of control under setting [6].

In the case of `O=C1OCCN1C(=O)c1ccc([N+](=O)[O-])cc1`, the T/C is, setting by setting: under setting [1], 97 % of control; under setting [7], 89 % of control; under setting [4], 97 % of control; under setting [2], 94 % of control; under setting [8], 94 % of control; under setting [5], 98 % of control. Further, the T/C was 97 % of control under setting [3], 88 % of control under setting [9] and 98 % of control under setting [6].

Regarding `C[C@]12CCC(=O)C=C1CC[C@H]1[C@@H]3CCC(=O)[C@@]3(C)CC(=O)[C@@]12S`, the T/C was 87 % of control (dose: 100.0 mg/kg/injection, schedule: Q01DX001 (ip), vehicle: steriod suspending solution); 93 % of control (dose: 100.0 mg/kg/injection, schedule: Q04DX003 (ip), vehicle: steriod suspending solution); 93 % of control (dose: 200.0 mg/kg/injection, schedule: Q01DX001 (ip), vehicle: steriod suspending solution); 108 % of control (dose: 200.0 mg/kg/injection, schedule: Q04DX003 (ip), vehicle: steriod suspending solution); 97 % of control (dose: 400.0 mg/kg/injection, schedule: Q01DX001 (ip), vehicle: steriod suspending solution); 95 % of control (dose: 400.0 mg/kg/injection, schedule: Q04DX003 (ip), vehicle: steriod suspending solution).

Turning to `O=C(Nc1ccc(CCO)cc1)c1cccc(F)c1`, the T/C is, setting by setting: under setting [7], 96 % of control; under setting [8], 107 % of control; under setting [9], 91 % of control.

For the molecule `CCCCCC1OC1C/C=C/CCCCCCCC(=O)OCC(COC(=O)CCCCCCC/C=C/CC1OC1CCCCC)OC(=O)CCCCCCC/C=C/CC1OC1CCCCC` (stereo unspecified), the T/C reads like this: under setting [10], 109 % of control; under setting [11], 95 % of control; under setting [12], 97 % of control.

For the molecule `O=C(O)COc1ccccc1OCC(=O)O`, the T/C under setting [7] was 98 % of control; the T/C under setting [4] was 94 % of control; the T/C under setting [8] is 100 % of control; the T/C under setting [5] was 100 % of control; the T/C under setting [6] was 98 % of control.

`Cc1cc(N(CCCOS(C)(=O)=O)CCCOS(C)(=O)=O)ccc1C=Nc1ccc(-c2csc(COc3ccc(Cl)cc3Cl)n2)cc1`: the T/C is, setting by setting: (dose: 100.0 mg/kg/injection, schedule: Q01DX009 (ip), vehicle: saline with Tween-80) 91 % of control; (dose: 200.0 mg/kg/injection, schedule: Q01DX009 (ip), vehicle: saline with Tween-80) 96 % of control; (dose: 400.0 mg/kg/injection, schedule: Q01DX009 (ip), vehicle: saline with Tween-80) 94 % of control.

In the case of `COc1cc(/C=C2/CCCCC2=O)ccc1O`, the T/C reads like this: (dose: 100.0 mg/kg/injection, schedule: Q04DX003 (ip), vehicle: other) 93 % of control; (dose: 200.0 mg/kg/injection, schedule: Q04DX003 (ip), vehicle: other) 100 % of control; (dose: 400.0 mg/kg/injection, schedule: Q04DX003 (ip), vehicle: other) 94 % of control.

Regarding `c1coc(C2SCSCS2)c1`, the T/C by setting is: under setting [4], 105 % of control; under setting [5], 101 % of control; under setting [6], 95 % of control.

With `CC(O)c1cccc(NC(=O)Nc2cccc(C(F)(F)F)c2)c1` (stereo unspecified), the T/C is, setting by setting: under setting [1], 104 % of control; under setting [7], 100 % of control and 109 % of control; (dose: 100.0 mg/kg/injection, schedule: Q04DX002 (ip), vehicle: Klucel (hydroxypropylcellulose) (HPC)) 110 % of control and 111 % of control; under setting [4], 99 % of control; under setting [2], 98 % of control; under setting [8], 107 % of control and 116 % of control. In addition, the T/C by setting is: (dose: 200.0 mg/kg/injection, schedule: Q04DX002 (ip), vehicle: Klucel (hydroxypropylcellulose) (HPC)) 108 % of control; under setting [5], 95 % of control; under setting [3], 98 % of control; under setting [9], 101 % of control and 89 % of control; (dose: 400.0 mg/kg/injection, schedule: Q04DX002 (ip), vehicle: Klucel (hydroxypropylcellulose) (HPC)) 112 % of control and 115 % of control; under setting [6], 103 % of control.

Turning to `CC(=O)c1cc(S(=O)(=O)c2cc(C(C)=O)c(O)cc2OCc2ccccc2)c(OCc2ccccc2)cc1O`, the T/C (dose: 100.0 mg/kg/injection, schedule: Q04DX002 (ip), vehicle: carboxymethylcellulose (CMC)) was 103 % of control; the T/C (dose: 200.0 mg/kg/injection, schedule: Q04DX002 (ip), vehicle: carboxymethylcellulose (CMC)) is 92 % of control; the T/C (dose: 400.0 mg/kg/injection, schedule: Q04DX002 (ip), vehicle: carboxymethylcellulose (CMC)) is 88 % of control.

Take `Nc1cc([N+](=O)[O-])ccc1Cl`: the T/C is 99 % of control under setting [7]; 102 % of control under setting [4]; 101 % of control under setting [8]; 102 % of control under setting [5]; 103 % of control under setting [6].

On to `NC(=O)c1ccc(OCc2cnc3nc(N)nc(N)c3n2)cc1`, for which the T/C is 98 % of control (dose: 20.0 mg/kg/injection, schedule: Q01DX009 (ip), vehicle: Klucel (hydroxypropylcellulose) (HPC)); 95 % of control (dose: 40.0 mg/kg/injection, schedule: Q01DX009 (ip), vehicle: Klucel (hydroxypropylcellulose) (HPC)); 109 % of control (dose: 80.0 mg/kg/injection, schedule: Q01DX009 (ip), vehicle: Klucel (hydroxypropylcellulose) (HPC)).

With `S=C(Nc1ccccc1)Nc1nccs1`, the T/C runs as follows: under setting [10], 104 % of control; under setting [4], 105 % of control; under setting [11], 101 % of control; under setting [5], 101 % of control; under setting [12], 101 % of control; under setting [6], 103 % of control.

Consider `CCN(C(=S)c1ccc(OC)cc1)c1cccc(C)c1`, for which the T/C (dose: 75.0 mg/kg/injection, schedule: Q04DX003 (ip), vehicle: Klucel (hydroxypropylcellulose) (HPC)) is 94 % of control; the T/C under setting [1] was 103 % of control; the T/C (dose: 150.0 mg/kg/injection, schedule: Q04DX003 (ip), vehicle: Klucel (hydroxypropylcellulose) (HPC)) was 111 % of control; the T/C under setting [2] was 97 % of control; the T/C (dose: 300.0 mg/kg/injection, schedule: Q04DX003 (ip), vehicle: Klucel (hydroxypropylcellulose) (HPC)) was 100 % of control; the T/C under setting [3] was 96 % of control.

Regarding `COc1ncnc2c(C3OC(CO)C(O)C3O)[nH]nc12` (stereo unspecified), the T/C runs as follows: (dose: 100.0 mg/kg/injection, schedule: Q01DX005 (ip), vehicle: saline) 103 % of control; (dose: 200.0 mg/kg/injection, schedule: Q01DX005 (ip), vehicle: saline) 97 % of control.

For `Cc1cc(N(CCCl)CCCl)ccc1/C=N\Nc1nncn1N`, the T/C (dose: 25.0 mg/kg/injection, schedule: Q01DX009 (ip), vehicle: carboxymethylcellulose (CMC)) was 122 % of control; the T/C (dose: 100.0 mg/kg/injection, schedule: Q01DX001 (ip), vehicle: carboxymethylcellulose (CMC)) is 100 % of control; the T/C (dose: 100.0 mg/kg/injection, schedule: Q01DX009 (ip), vehicle: carboxymethylcellulose (CMC)) is 154 % of control; the T/C (dose: 200.0 mg/kg/injection, schedule: Q01DX001 (ip), vehicle: carboxymethylcellulose (CMC)) was 100 % of control; the T/C (dose: 400.0 mg/kg/injection, schedule: Q01DX001 (ip), vehicle: carboxymethylcellulose (CMC)) was 102 % of control.
